Active and inactive are the calls of the source. No cut-off for these calls is given here.

Assay [1] addresses T1, Programmed cell death protein 1/Programmed cell death 1 ligand 1 (Homo sapiens, UniProt Q9NZQ7). Kind of assay: (§1) Inhibition of PD-1/PD-L1 interaction in human Jurkat T cells co-cultured with CHO/TCRAct/PDL1 cells assessed as restoration of T cell activation measured for 6 hrs by luminescence based immune checkpoint blockade assay.
The target of assay [2] is T2, Programmed cell death protein 1/Programmed cell death 1 ligand 1 (Homo sapiens) (UniProt Q15116+Q9NZQ7). Kind of assay: Inhibition of human PD-1/PD-L1 interaction assessed as residual activity at 500 nM for 1 hr by HTRF assay relative to control. The format is protein-complex assay. (In TR-FRET formats the signal depends on donor and acceptor labels being close together.)

The target in assay [3] is T2, Programmed cell death protein 1/Programmed cell death 1 ligand 1 (Homo sapiens). The assay is described as §1. As to conditions: dose 0.1-100 µM.
The target in assay [4] is T1, Programmed cell death protein 1/Programmed cell death 1 ligand 1. Kind of assay: Inhibition of human PD-1/PD-L1 interaction incubated for 1 hr by HTRF assay. It counts as protein-complex assay.
Assay [5] has as its system PBMC. Kind of assay: Induction of T cell activation in human PBMC cells co-cultured with CHO/TCRAct/PD-L1 cells assessed as increase in PD-1 positive cells at 10 uM incubated for 48 hrs by flow cytometry analysis. It counts as functional, cell-based. A general note: In flow cytometry, cells or beads pass a laser one at a time.
For assay [6], the system named is PBMC. Kind of assay: Induction of T cell activation in human PBMC cells co-cultured with CHO/TCRAct/PD-L1 cells assessed as increase in the percentage of CD69+/CD8+ cells at 10 uM incubated for 48 hrs by flow cytometry analysis. The format is functional, cell-based.
The subject of assay [7] is PBMC. Kind of assay: Induction of T cell activation in human PBMC cells co-cultured with CHO/TCRAct/PD-L1 cells assessed as increase in the percentage of CD25+/CD4+ cells at 10 uM incubated for 48 hrs by flow cytometry analysis. It counts as functional, cell-based.
Assay [8] concerns PBMC. Kind of assay: Induction of T cell activation in human PBMC cells co-cultured with CHO/TCRAct/PD-L1 cells assessed as increase in HLA-DR positive cells at 10 uM incubated for 48 hrs by flow cytometry analysis. The format is functional, cell-based.

T1 sequence (Q15116 whole entry): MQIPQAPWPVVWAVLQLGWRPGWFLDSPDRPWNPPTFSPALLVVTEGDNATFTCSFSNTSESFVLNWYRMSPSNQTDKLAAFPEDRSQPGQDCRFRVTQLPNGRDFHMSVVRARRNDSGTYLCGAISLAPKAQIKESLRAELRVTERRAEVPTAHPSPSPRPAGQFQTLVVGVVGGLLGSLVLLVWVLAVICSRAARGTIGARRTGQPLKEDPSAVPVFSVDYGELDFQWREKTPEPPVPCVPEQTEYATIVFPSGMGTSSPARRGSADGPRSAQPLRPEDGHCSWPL
T1 sequence (Q9NZQ7 whole entry): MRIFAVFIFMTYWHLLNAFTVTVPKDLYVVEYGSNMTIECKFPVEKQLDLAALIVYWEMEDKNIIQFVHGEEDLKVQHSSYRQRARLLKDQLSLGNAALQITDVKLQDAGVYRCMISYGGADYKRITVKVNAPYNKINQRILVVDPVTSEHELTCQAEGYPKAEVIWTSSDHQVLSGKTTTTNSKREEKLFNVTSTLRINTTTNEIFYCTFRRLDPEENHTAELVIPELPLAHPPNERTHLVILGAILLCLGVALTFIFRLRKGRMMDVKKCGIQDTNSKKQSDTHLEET

Turning to `O=C(O)[C@@H]1CCCCN1Cc1ccc(OCc2cccc(-c3ccccc3)c2Br)c(Br)c1`, the concentration for a half-maximal effect (EC50) (in general, the midpoint of the concentration-response curve) in assay [1] is 6.6 µM.
For `Cc1c(COc2ccc(CNC(CO)(CO)CO)cc2)cccc1-c1ccc2c(c1)OCCN2C(=O)c1ccc(CNC(CO)(CO)CO)cc1`, the Activity in assay [2] was found to be 83%.
For `Cc1c(NC(=O)c2ccc(CNC(CO)(CO)CO)cn2)cccc1-c1ccc2c(c1)OCCN2C(=O)c1ccc(CNC(CO)(CO)CO)cc1`, the Activity in assay [2] was 92%.
The same measure, in the same setting: under `Cc1c(NC(=O)c2ccc(CNC(CO)CO)cn2)cccc1-c1ccc2c(c1)OCCN2C(=O)c1ccc(CNC(CO)CO)cc1` stands 70%.
Regarding `Cc1c(NC(=O)c2ccc(CNC(CO)CO)cn2)cccc1-c1ccc2c(c1)OCCN2C`, in assay [3], the inhibition entry was “inactive”. In assay [4], inhibition was half-maximal at 0.109 µM (IC50).
As for `Cc1c(COc2ccc(CNC(CO)CO)cc2)cccc1-c1ccc2c(c1)OCCN2C(=O)c1ccc(CNC(CO)CO)cc1`, the Activity in assay [2] turned out to be 84%.
In the case of `Cc1c(NC(=O)c2ccc(CNC(CO)(CO)CO)cn2)cccc1-c1ccc2c(c1)OCCN2C`, in assay [1], the concentration for a half-maximal effect (EC50) came out at 25.8 µM. The inhibition entry in assay [3] is “Dose-Dependent Effect”. Besides, the outcome in the assay with PBMC [5], in the assay with PBMC [6], in the assay with PBMC [7] and in the assay with PBMC [8] was Active. Besides, it took 0.077 µM to reach half-maximal inhibition in assay [4] (IC50).

The values above are taken from ChEMBL document CHEMBL5584261, “N-methylmorpholine incorporation into the structure of biphenyl leads to the bioactive inhibitor of PD-1/PD-L1 interaction” (Bioorg Med Chem Lett, 2024).
